PubChem BioAssay AID179 (DTP/NCI, 2004)
Calls of active or inactive are those of the source.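 Rule for the calls: active = compounds giving half or more protection of infected cells from virus-caused growth loss, again on retest; inactive = the rest.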 Where a SMILES comes first, the peptide text is derived from it. The star is where a group is joined. Boc = CC(C)(C)OC(=O)*; OBn = c1ccc(CO*)cc1

Test system: CEM cells HIV-1 protection, formazan growth assay
Test: NCI AIDS Antiviral Assay
Conditions: for IC50: measured here: growth of uninfected CEM cells
How it was run: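 Five concentrations of each compound were applied to infected and uninfected human CEM cells. Protection from HIV-1 was judged from growth measured with a soluble formazan assay.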

SMILES | EC50 [µM] | IC50 [µM] | outcome
CNC(=S)/C(C#N)=C(\N)N1CCN(C)CC1 | > 200 | > 200 | 
C=CC1=C(C)C(/C=c2\[nH]/c(=C/c3[nH]c(CC4NC(=O)C(C)/C4=C\C)c(C)c3CCC(=O)O)c(CC(=O)O)c2C)=NC1=O (stereo not drawn) | > 2690 | > 2690 | 
C=CCN=C1N=C(C)C(C(=O)OCC)S1 (stereo not drawn) | > 30.2 | 17.8 | 
COc1ccc2cc(C(C)C(=O)N3C(=O)OCC3(C)C)ccc2c1 (stereo not drawn) | > 200 | 91.2 | 
O=C(O)CCCCC1CCSS1 (stereo not drawn) | 186 | > 200 | 
CSc1ccc(N2C(=O)C3c4[nH]c5ccccc5c4C4CCC(C(C)(C)C)CC4C3C2=O)cc1 (stereo not drawn) | > 2.19 | > 2.19 | 
CCOC(=O)c1c(-c2ccccc2)oc(-c2ccccc2)c1C(=O)OCC |  |  | inactive
Cc1cnc2c(c1)CCCC2C(N)=S (stereo not drawn) |  |  | inactive
CC(=O)[O-].O=C([N-]/N=C\c1ccoc1)c1ccncc1.[Ni+2].[OH3+].[OH3+].c1ccncc1 | > 200 | > 200 | 
COC(=O)C(CC=O)C(=O)C(=O)Nc1cccc(C(F)(F)F)c1 (stereo not drawn) | > 282 | > 282 | 
COc1ccc(-c2onc3ccc(Br)cc23)cc1 | > 23.4 | > 23.4 | 
CC[C@H]1C[C@@H](O)[C@@H]2[C@H](O)[C@H](O)CN2C1 | > 200 | > 200 | 
CC(C)C(NC(=O)CNC(=O)C1CCCN1C(=O)C(NC(=O)OC(C)(C)C)C(C)C)C(=O)NCC(=O)OCc1ccccc1 (stereo not drawn) (Boc-VPGVG-OBn; configuration not given here) | > 200 | 117 | 
COc1ccc(N2C(=O)C3CC(c4ccc(Br)cc4)c4c([nH]c5ccccc45)C3C2=O)cc1 (stereo not drawn) | > 14.5 | 11 | 
CC(C)[Si](OC1=C(C(=O)N(C)c2ccccc2Cl)CCCC1)(C(C)C)C(C)C | > 200 | 16.6 | 
O=C1c2ccccc2C(=O)c2c(O)c(NCCCNCCO)cc(O)c21 |  |  | inactive
COC(=O)Cc1cc(=O)oc2c1C(=O)CCC2 |  |  | inactive
Cc1cc(S(=O)(=O)Nc2n[nH]c(N)n2)c(Cl)cc1Cl | > 200 | > 200 | 
O=C1CC(c2ccsc2)n2cccc21 (stereo not drawn) | 186 | > 200 | 
COC(=O)C1=C2Nc3ccccc3[C@@]23CCN(Cc2ccccc2)C3C[C@H]1C1=CC(OC)OC1OC (stereo partly drawn) | > 25.7 | 15.1 | 
O=C1c2ccccc2C(=O)c2c(NCCCNCCO)ccc(NCCCNCCO)c21 |  |  | inactive

SMILES | EC50 [µM] | IC50 [µM] | outcome
COc1ccc(-c2cc(O)c3nc4ccccc4n3c2)cc1 | > 200 | > 200 | 
NC(=S)N/N=C1\CCCCC1C(O)(C(F)(F)Cl)C(F)(F)Cl (stereo not drawn) | > 200 | > 200 | 
CCCC(C(=O)OCCN1CCCC12CCCCC2)C1CCCC1 (stereo not drawn) | > 200 | 11 | 
CN(C)CCCNC(=O)c1cc(NC(=O)c2cc(NC(=O)c3cc(NC(=O)c4ccc(C(=O)Nc5cc(C(=O)Nc6cc(C(=O)Nc7cc(C(=O)NCCCN(C)C)n(C)c7)n(C)c6)n(C)c5)cc4)cn3C)cn2C)cn1C | > 100 | > 100 | 
CNC(=O)CNC(=O)C(NC(=O)CNC(=O)C1CCCN1C(=O)C(C)NC(=O)C(NC(C)=O)C(C)C)C(C)C (stereo not drawn) (Ac-VAPGVG-NHMe; configuration not given here) | > 200 | > 200 | 
O=C(NNc1ccnc2cc(Cl)ccc12)/C(=C\c1ccccc1Cl)NC(=O)c1ccccc1 | > 100 | 56.2 | 
CCN(CC)C(=O)c1cc(=O)c(C)c2oc3c(C)c(O)c(N)c(C(=O)N(CC)CC)c3nc1-2 | > 200 | 110 | 
COC(=O)N1CCCCC(CCC#CC[Si](C)(C)C)C1=O (stereo not drawn) | > 120 | 110 | 
c1ccc(COc2nc3ccc(C45CC6CC(CC(C6)C4)C5)cc3[nH]2)cc1 | > 200 | 7.41 | 
COc1ccc2nc(C)cc(NCCCCCCCCCNc3cc(C)nc4ccc(OC)cc34)c2c1 | > 33.1 | 0.891 | 
Cc1[cH-]c(=O)n(-c2ccccc2)n1.[Au+].[Au].c1ccc([PH+](c2ccccc2)c2ccccc2)cc1.c1ccc([PH+](c2ccccc2)c2ccccc2)cc1 | > 3.47 | > 3.47 | 
O=C1NC(=O)c2c1n(Cc1ccccc1)c(=O)n2Cc1ccccc1 | > 77.6 | > 77.6 | 
O=C(/C=C\c1ccsc1)c1ccccc1 | > 200 | 3.24 | 
Cc1cc(C)c(C#N)c(SCC(=O)c2sc3c(C#N)c(C)cc(C)[n+]3c2[O-])n1 | > 6.61 | > 6.61 | 
N#Cc1c2c(c(N=P(c3ccccc3)(c3ccccc3)c3ccccc3)n3c1nc1ccccc13)CCCC2 | > 1.05 | > 1.05 | 
C[n+]1cccc(O)c1 |  |  | inactive
CCOc1cn(C2OC(CO)C(O)C2O)c(=O)[nH]c1=O (stereo not drawn) | > 871 | 490 | 
Cn1c(=O)cc2[nH]c3ccccc3n2c1=O | > 63.1 | > 63.1 | 
COc1cc2c(cc1OC)C(Cl)C(c1ccc(F)cc1)=C2Cl (stereo not drawn) |  |  | inactive
CC1(C)OC[C@@H](O)[C@H](Br)CO1 | > 200 | 77.6 | 
COc1ccccc1N=NC(C(=O)c1ccccc1)C(=O)c1ccccc1 | > 52.5 | 0.513 | 

SMILES | EC50 [µM] | IC50 [µM] | outcome
CC1=C(OCCCl)C2CC1C1C(=O)N(c3ccccc3)C(=O)C21 (stereo not drawn) | > 389 | > 389 | 
O=C1OC2(c3ccc(O)cc3Oc3cc(O)ccc32)c2ccccc21 | > 50.1 | > 50.1 | 
N=C(N)SC12CC3CC(CC(C3)C1)C2 | > 200 | 138 | 
Cn1ccnc1.Cn1ccnc1.Cn1ccnc1.Cn1ccnc1.[O-][Cl+3]([O-])([O-])[O-].[Pt+2] | > 200 | > 200 | 
O=C1CCC(=O)C(C(=O)CCC(=O)Nc2ccc(Cl)cc2)C1 (stereo not drawn) |  |  | inactive
CCOC(=O)C(=O)Nc1ccc(C)cc1C | > 1120 | 646 | 
Cc1cn2c(n1)sc1ccccc12 | > 200 | > 200 | 
CC1=C(C(=O)Nc2ccccc2)C(c2ccccc2Cl)C(C(=O)Nc2ccccc2)=C(C)N1 |  |  | inactive
O=C1CN(C=C2C(=O)NC(=O)NC2=O)C(=S)N1 | > 200 | > 200 | 
C=CCNC(=O)/C=C\C(=O)O | > 1620 | > 1620 | 
COC(=O)c1cc(C(=CCC(=O)N[C@H]2CC[C@@]3(C)[C@@H](CC[C@@H]4[C@@H]3CC[C@]3(C)[C@@H]([C@H](C)CCCC(C)C)CC[C@@H]43)C2)c2cc(Cl)c(OC)c(C(=O)OC)c2)cc(Cl)c1OC | > 200 | > 200 | 
COC1=C(Br)[C@H](O)[C@@]2(C=C1Br)CC(C(=O)NCCCCCN=C(N)N)=NO2 | > 10 | > 10 | 
COC(=O)C1(Cc2ccccc2)Cc2cc3c(cc2C1)CCC3 | > 200 | 60.3 | 
CC1(C)Cc2c(C#N)c(N)c3c(c2CO1)C(=O)OC3=O | > 19.1 | > 19.1 | 
CC(C)OC(=S)SSSC(=S)OC(C)C | > 200 | 19.1 | 
O=Nc1[nH]c(O)c2ccccc12 | > 200 | > 200 | 
CC(NC(=O)OCC[P+](c1ccccc1)(c1ccccc1)c1ccccc1)C(=O)O (stereo not drawn) | > 200 | 5.89 | 
COC(=O)C(N)CSSCC(N)C(=O)OC (stereo not drawn) | > 324 | 123 | 
Cc1ccc2nn(-c3ccc(O)cc3)[n+]([O-])c2c1 | > 200 | > 200 | 
COCN1C(=O)[C@@H]2CCCN2C(=O)c2cc(N)ccc21 | > 200 | > 200 | 
O=C1CSC2=NC3=C(CSC/C3=C\c3ccccc3)C(c3ccccc3)N12 (stereo not drawn) | > 200 | 43.7 | 

SMILES | EC50 [µM] | IC50 [µM] | outcome
Cc1cccc(N=C2NC(=O)C(CC(=O)Nc3ccc(C)cc3C)S2)c1 (stereo not drawn) | > 26.9 | > 26.9 | 
COc1ccc(/C=C(\C#N)c2ccccn2)cc1OC | > 200 | 50.1 | 
CC(=O)[O-].Cc1ccnc(NS(=O)(=O)c2ccc(N=Cc3ccccc3[O-])cc2)n1.Cc1ccnc(NS(=O)(=O)c2ccc(N=Cc3ccccc3[O-])cc2)n1.[Co+2].[H+] | > 200 | 10.5 | 
COC(=O)c1cc(C(=CCN[C@@H]2CC[C@@]3(C)[C@@H](CC[C@@H]4[C@@H]3CC[C@]3(C)[C@@H]([C@H](C)CCCC(C)C)CC[C@@H]43)C2)c2cc(Cl)c(OC)c(C(=O)OC)c2)cc(Cl)c1OC | > 100 | > 100 | 
COc1ccc(/C=C2\CCc3ccccc3C2=O)cc1OC | > 33.9 | > 33.9 | 
C/C(=N/NC(=S)N(Cc1ccccn1)Cc1ccccn1)c1cnccn1 | 0.2 | 0.339 | 
CCOC(=O)c1cc(-c2cc(OC)c(OC)c([N+](=O)[O-])c2)c([N+](=O)[O-])n1C | > 200 | 10.2 | 
O=C1c2c(ccc3c2CCC3)CC1Cc1ccc2c(c1)CCC2 (stereo not drawn) | > 200 | 35.5 | 
COc1cccc(NC(=O)c2c(SC)n[nH]c2N)c1 | > 200 | > 200 | 
Cc1nn(C(=O)Cc2ccccc2)c2c1C(c1ccccc1)SC(N)=N2 (stereo not drawn) | 148 | 195 | 
Cc1ccc(SSc2ccc([N+](=O)[O-])cc2)cc1 | > 200 | 9.55 | 
CC1(C)OCC2OC3([C@@H]4OC(C)(C)O[C@H]4CO)OC(C)(C)OC3C2O1 (stereo partly drawn) | > 200 | > 200 | 
Cn1cnc2ccccc2c1=S | > 200 | 182 | 
O=c1cc(-c2ccccc2)oc2c1ccc1[nH]c3ccccc3c(=O)c12 | > 200 | > 200 | 
COc1cc(/C=C(\NC(=O)c2ccccc2)c2nc3ccc4c(c3[nH]2)C(=O)c2ccccc2C4=O)cc(OC)c1OC |  |  | inactive
CC1(C)Oc2cc(OCc3ccccc3)ccc2C2Oc3cc(OCc4ccccc4)c(O)cc3C21 (stereo not drawn) | > 200 | 79.4 | 
CCCN1C(=O)/C(=C(/O)C(=O)OCC)C(c2ccc(OC)c(OC)c2)C1=O (stereo not drawn) |  |  | inactive
CN(/N=C/c1ccnc2ccccc12)c1c([N+](=O)[O-])cc([N+](=O)[O-])cc1[N+](=O)[O-] | > 47.9 | 8.71 | 
COc1cccc(NC(=O)CC(=O)n2nc(-c3ccccc3)c(N=Nc3ccc(Cl)cc3)c2-c2ccccc2)c1 | > 200 | 11.5 | 
